According to PubChem BioAssay (NCI):
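96-well plates; 48 h exposure; 5 concentrations. Endpoints by linear interpolation between flanking doses. Not reached: highest tested concentration assigned. At the GI50, growth is halved. The concentration for full growth arrest is given as TGI.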 Where a SMILES comes first, the peptide text is derived from it. The star is where a group is joined. Cbz = O=C(OCc1ccccc1)*; Bn = c1ccc(C*)cc1

What was measured:
Test in all cases: NCI anticancer screen, dose series, 48 h
A549 NSCLC = test system: A549 NSCLC
HCC-2998 colon = test system: HCC-2998 colon
HT29 colon = test system: HT29 colon
OVCAR-3 ovarian = test system: OVCAR-3 ovarian
RXF 393 renal = test system: RXF 393 renal
SF-539 CNS = test system: SF-539 CNS
SK-MEL-5 melanoma = test system: SK-MEL-5 melanoma
SNB-19 CNS = test system: SNB-19 CNS
BT-549 breast = test system: BT-549 breast
NCI/ADR-RES ovarian = test system: NCI/ADR-RES ovarian
SR leukemia = test system: SR leukemia
T-47D breast = test system: T-47D breast

Row | SMILES | TGI (A549 NSCLC) [µM] | TGI (HCC-2998 colon) [µM] | TGI (HT29 colon) [µM] | TGI (OVCAR-3 ovarian) [µM] | TGI (RXF 393 renal) [µM] | TGI (SF-539 CNS) [µM] | TGI (SK-MEL-5 melanoma) [µM] | TGI (SNB-19 CNS) [µM] | TGI (BT-549 breast) [µM] | TGI (NCI/ADR-RES ovarian) [µM] | TGI (SR leukemia) [µM] | TGI (T-47D breast) [µM] | GI50 (BT-549 breast) [µM] | GI50 (HCC-2998 colon) [µM] | GI50 (OVCAR-3 ovarian) [µM] | GI50 (SF-539 CNS) [µM] | GI50 (SK-MEL-5 melanoma) [µM] | GI50 (T-47D breast) [µM] | GI50 (NCI/ADR-RES ovarian) [µM] | GI50 (SR leukemia) [µM]
1 | C[n+]1c2ccccc2c(CNCC(=O)O)c2ccccc21 | 13.1 | 18.1 | 12.1 | 6.2 | 6.5 | 5.19 | 14.4 | 22.2 | – | – | – | – | – | – | – | – | – | – | – | –
2 | COc1ccc2c(c1)C(OC)C1c3c(cc4c(c3-2)OCO4)CCN1C (stereo not drawn) | 9.87 | 14.3 | 14.1 | 25.1 | 6.43 | 8.38 | 5.17 | 19.3 | 8.48 | 7.45 | > 42.3 | > 63.7 | – | – | – | – | – | – | – | –
3 | CS(=O)(=O)c1ccc2nc(-c3ccc(O)cc3)sc2c1 | 34.3 | – | 26 | 31.8 | 32.9 | 23.6 | 31.8 | 36.2 | 30.5 | 36.2 | 39.8 | – | – | – | – | – | – | – | – | –
4 | N=C(N)c1ccc(-c2ccc(-c3ccc4ccccc4c3)s2)s1 | – | 4.48 | – | 3.7 | – | 4.57 | 28 | – | 46.8 | – | – | 4.52 | 17.6 | 2.02 | 1.89 | 1.97 | 14.7 | 1.95 | – | –
5 | C=CCNC1=C2C[C@@H](C)C[C@H](OC)[C@H](O)[C@@H](C)/C=C(\C)[C@H](OC(N)=O)[C@@H](OC)/C=C\C=C(/C)C(=O)NC(=CC1=O)C2=O | 17.8 | 2.82 | 12.1 | 9.64 | 10.1 | 9.5 | 16.5 | 62.2 | 31.1 | 57.3 | 10.3 | 29.5 | – | – | – | – | – | – | – | –
6 | COc1ccc(N2C(=O)/C(=C\c3ccccc3)SC2c2cc(OC)c(OC)c(OC)c2)cc1 (stereo not drawn) | > 100 | > 100 | > 100 | – | > 100 | – | > 100 | > 100 | > 100 | > 100 | > 100 | > 100 | – | – | – | – | – | – | – | –
7 | C[P+](c1ccccc1)(c1ccc(Cl)cc1)c1ccc(Cl)cc1 | > 100 | 24 | 24.1 | 10.5 | > 100 | 65.4 | 14.4 | 59.1 | 68.3 | > 100 | – | 49.3 | – | – | – | – | – | – | – | –
8 | O=C(CSCC(=O)N/N=C\c1ccc(O)c(O)c1O)N/N=C\c1ccc(O)c(O)c1O | 53.7 | 46.1 | 54.9 | 17.6 | > 100 | 37.9 | 36.3 | > 100 | – | 3.16 | 8.18 | 76.1 | – | – | – | – | – | – | – | –
9 | NC(CCP(=O)(O)O)C(=O)O (stereo not drawn) | > 100 | – | > 100 | > 100 | > 100 | – | > 100 | > 100 | > 100 | > 100 | > 100 | > 100 | – | – | – | – | – | – | – | –
10 | CCCCSCC(NC(=O)/C=C/c1c(C)[nH]c(=O)[nH]c1=O)C(=O)OC (stereo not drawn) | 401 | 132 | 357 | 77.2 | 267 | 254 | 176 | 204 | – | > 450 | – | – | – | – | – | – | – | – | – | –
11 | CN(C)CCOc1cc2c(c3ccccc13)-c1ccccc1C2O (stereo not drawn) | 29.3 | 28.2 | 27.8 | 30.1 | 10.1 | 27.5 | 29.1 | 20.2 | – | 19.5 | – | – | – | – | – | – | – | – | – | –
12 | C=CCOCCC(CC=C)C(=O)CC(=O)OC (stereo not drawn) | > 100 | > 100 | > 100 | > 100 | > 100 | > 100 | > 100 | > 100 | – | – | > 100 | – | – | – | – | – | – | – | – | –
13 | c1ccc(-c2n(Cc3ccc4ccccc4c3)c3ccccc3[n+]2Cc2ccc3ccccc3c2)cc1 | – | – | – | 1.03 | – | 1.29 | 0.326 | – | – | 5.93 | 1.64 | – | – | – | 0.259 | 0.336 | 0.175 | – | 2.21 | 0.343
14 | CCn1c(=O)c(C(=O)O)c(Cl)c2cc3c(cc21)OCO3 | > 100 | > 100 | > 100 | > 100 | > 100 | > 100 | > 100 | > 100 | – | > 100 | – | – | – | – | – | – | – | – | – | –
15 | O=C(Nc1ccc(Cl)cc1)c1cc([N+](=O)[O-])ccc1O | > 96.2 | 8.98 | 29.1 | 7.56 | 6.64 | > 34 | 8.25 | > 49.2 | – | – | 31.6 | – | – | – | – | – | – | – | – | –
16 | O=CC1C(Cl)=Nc2nc3ccccc3n2C1c1ccccc1 (stereo not drawn) | 76.6 | 34.8 | 37.7 | 43.2 | 30.9 | 34 | 45.5 | > 100 | 29 | 65.6 | 14.4 | 41.2 | – | – | – | – | – | – | – | –
17 | Nc1nc(Cl)c2ncn(Cc3cccc(CCl)c3)c2n1 | 29.9 | 4.86 | 19.2 | 3.74 | 10.5 | 20 | 15.9 | 20.6 | 17.4 | 11.5 | > 28.3 | 42.1 | – | – | – | – | – | – | – | –
18 | COC(=O)C(Cc1ccc(O)cc1)NC(=O)C(COCc1ccccc1)NC(=O)OCc1ccccc1 (stereo not drawn) (Cbz-Ser(Bn)-Tyr-OMe; configuration not given here) | 35.7 | 17.3 | 28.6 | 31.8 | 33.9 | 34.2 | 31.4 | 31.2 | > 100 | 38.8 | > 100 | 39.5 | – | – | – | – | – | – | – | –
19 | C1CSCCSCSCCS1 | > 100 | > 100 | > 100 | > 100 | > 100 | > 100 | > 100 | > 100 | > 100 | > 100 | – | > 100 | – | – | – | – | – | – | – | –
20 | O=C1c2cccc(O)c2C(=O)c2c(O)cccc21 | > 100 | > 100 | > 100 | > 100 | > 100 | > 100 | – | > 100 | – | – | > 100 | – | – | – | – | – | – | – | – | –
21 | O=[N+]([O-])c1cc(N=Nc2c(O)ccc3cc(S(=O)(=O)O)ccc23)c(O)c([N+](=O)[O-])c1 | > 100 | – | > 100 | > 100 | > 100 | – | > 100 | > 100 | > 100 | > 100 | – | > 100 | – | – | – | – | – | – | – | –
22 | COc1ccc(-c2oc3cc(OC(C)=O)cc(OC(C)=O)c3c(=O)c2OC)cc1 | 74.1 | 32.3 | 36.3 | 38.6 | – | – | 25 | 79.4 | – | 36 | 51.5 | 57.9 | – | – | – | – | – | – | – | –
23 | CC(=O)OCC1OC(NC(=O)N(CCCl)N=O)C(OC(C)=O)C(OC(C)=O)C1OC(C)=O (stereo not drawn) | > 100 | > 100 | > 100 | > 100 | > 100 | > 100 | > 31.6 | > 100 | – | > 100 | – | – | – | – | – | – | – | – | – | –
